ChEMBL document CHEMBL2429726, “Gamma secretase modulators” (ACS Med Chem Lett, 2013)

Key:
[1] = biological target: Gamma-secretase; assay: Inhibition of gamma secretase-mediated amyloid beta42 production in HEK293 cells expressing APP after 5 hrs by sandwich immunoassay; type: cell-based, Homo sapiens
[2] = tested on: Rattus norvegicus; assay: Antialzheimer activity in CD rat assessed as reduction of amyloid beta42 level in CSF at 30 mg/kg, po after 3 hrs relative to control; type: functional; set-up: scale not given: the % may be the effect or the level left

| IC50 [1] [nM] | Compound | Activity [2] [%] |
| --- | --- | --- |
| 29 | COc1cc(-c2noc3c2CCCC3NCc2cc(F)cc(F)c2)ccc1-n1cnc(C)c1 (stereo unspecified) | 20 |
| 39 | COc1cc(-c2noc3c2CCCC3Nc2ccc(F)cc2)ccc1-n1cnc(C)c1 (stereo unspecified) | 58 |
| 190 | COc1cc(-c2noc3c2CCCC3(O)c2cc(F)cc(F)c2)ccc1-n1cnc(C)c1 (stereo unspecified) | 20 |
